Tests used:
ALYREF [1] = molecular target: T1, ALYREF (Mus musculus, UniProt O08583, DEL113-113); assay: cellular thermal shift assay (also DARTS in lysate); type: cell-based; conditions: Flag-tagged mutant transfected into mouse cardiomyocytes
T1 construct: full length; endogenous in neonatal mouse cardiomyocytes (wild type); Flag-tagged plasmids transfected into the cardiomyocytes for the deletion mutants

ALYREF [2] = molecular target: T2, ALYREF (Mus musculus, UniProt O08583); assay: as above; type: cell-based; conditions: mouse cardiomyocytes; 40 to 67 °C, 3 min; vs DMSO
T2 construct: full length; endogenous in neonatal mouse cardiomyocytes (wild type); Flag-tagged plasmids transfected into the cardiomyocytes for the deletion mutants

ALYREF [3] = molecular target: T3, ALYREF (Mus musculus, UniProt O08583, DEL171-171); assay: as above; type: cell-based; conditions: Flag-tagged mutant transfected into mouse cardiomyocytes
T3 construct: full length; endogenous in neonatal mouse cardiomyocytes (wild type); Flag-tagged plasmids transfected into the cardiomyocytes for the deletion mutants

[4] = molecular target: ALYREF (purified recombinant, pSMARt‐I‐ALYREF) (Mus musculus, UniProt O08583); assay: in vitro droplet (phase separation) assay, microscopy; type: biochemical; conditions: 250 mmol/L Tris pH 8.0, 10% PEG-8000, room temperature

## COc1cccc2c1C(=O)c1c(O)c3c(c(O)c1C2=O)C[C@@](O)(C(=O)CO)C[C@@H]3O[C@H]1C[C@H](N)[C@H](O)[C@H](C)O1 [doxorubicin]
ALYREF [1]
  binding retained (DARTS, CESTA): DOX remained capable of binding to the ΔD113 mutant
ALYREF [2]
  thermal stability (CESTA): DOX treatment significantly increased the thermal stability of ALYREF compared with the DMSO control
ALYREF [3]
  binding abolished (DARTS, CESTA): Deletion of D171 abolished the interaction between ALYREF and DOX
[4]
  droplet disruption: also disrupted by DOX, which caused droplet disintegration and structural irregularity

— PMC12631900, “Preservation of ALYREF Phase Separation Mitigates Doxorubicin‐Induced Cardiomyocyte DNA Damage and Cardiotoxicity” (Advanced Science, 2025)
